From patent US20100098633A1, “SELECTIVE SEPRASE INHIBITORS” (Molecular Insight Pharmaceuticals, Inc., priority 2008, published 2010) come the findings set out here.

This assay has as its target T1, recombinant human seprase (rhFAP) (Homo sapiens, UniProt Q12884).
T1 sequence (Q12884 26-760 limits assumed): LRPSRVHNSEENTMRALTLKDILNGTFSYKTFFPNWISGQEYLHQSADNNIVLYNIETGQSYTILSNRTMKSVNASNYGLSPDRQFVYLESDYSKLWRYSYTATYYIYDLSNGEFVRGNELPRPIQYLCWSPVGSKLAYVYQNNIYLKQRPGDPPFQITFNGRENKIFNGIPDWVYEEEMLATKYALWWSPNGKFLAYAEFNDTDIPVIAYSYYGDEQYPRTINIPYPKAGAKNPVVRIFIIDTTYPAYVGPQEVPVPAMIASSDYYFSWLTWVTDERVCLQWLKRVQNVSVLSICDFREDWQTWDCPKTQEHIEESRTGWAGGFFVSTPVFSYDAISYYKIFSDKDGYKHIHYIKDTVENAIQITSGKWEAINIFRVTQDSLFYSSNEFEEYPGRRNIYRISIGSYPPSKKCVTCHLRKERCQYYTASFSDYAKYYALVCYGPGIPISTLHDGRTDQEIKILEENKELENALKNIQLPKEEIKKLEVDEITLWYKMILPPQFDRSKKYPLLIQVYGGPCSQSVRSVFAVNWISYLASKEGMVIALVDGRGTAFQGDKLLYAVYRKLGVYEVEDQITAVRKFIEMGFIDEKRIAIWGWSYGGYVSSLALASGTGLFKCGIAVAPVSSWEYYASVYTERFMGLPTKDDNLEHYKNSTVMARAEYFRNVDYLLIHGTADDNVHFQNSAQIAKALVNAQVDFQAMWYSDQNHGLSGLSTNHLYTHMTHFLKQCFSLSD
Nature of the assay: Inhibition of enzymatic activity of recombinant human seprase on Z-Gly-Pro-AMC (fluorescence). In kind it is biochemical. Particulars: in vitro data against seprase; read-out: FAP (IC50 nM). The method, then: In vitro assaying of compounds for inhibition of dipeptidyl peptidase activity of seprase and DPP-IV can be achieved following the described in Edosada C. Y. et al. J. Biolog. Chem. 2006, 281, 7437-7444.
Selected test compounds were examined for their ability to inhibit the enzymatic activity of recombinant human seprase (rhFAP) on the substrate, benzyloxycarbonyl-Gly-Pro-7-amido-4-methylcoumarin (Z-Gly-Pro-AMC). In brief, 10 μg rhFAP was added to 50 μM Z-Gly-Pro-AMC in the presence of increasing concentrations of test compound, and enzymatic activity was determined by monitoring fluorescence (Ex. 355 nm/Em. 460 nm). Compound 1051 is the known inhibitor, Cbz-Gly-boroproline. Initial velocity of the reaction was calculated and normalized to control reactions conducted in the absence of test compound.
The inhibition was measured by the half maximal inhibitory concentration (IC50) of a compound of interest. The IC50 indicates how much of a particular compound is needed to inhibit seprase by half.
Take “Re(CO)3-(S)-2,2′-(2,2′-(6-(2-(2-cyanopyrrolidin-1-yl)-2-oxoethylamino)-6-oxohexylazanediyl)bis(methylene)bis(1H-imidazole-2,1-diyl))diacetic acid [Compound 1022]”: the IC50 was determined as 236 nM.

As to `O=C(NCC(=O)N1CCCC1B(O)O)c1cc(I)ccn1` (stereo not drawn) [Compound 1033, 1-(2-(4-iodopicolinamido)acetyl)pyrrolidin-2-ylboronic acid], the IC50 amounted to 500 nM.

In the case of `N#C[C@H]1CCCN1C(=O)CNC(=O)c1cccc(I)c1` [Compound 1046, (R)-N-(2-(2-cyanopyrrolidin-1-yl)-2-oxoethyl)-3-iodobenzamide], the IC50 was 970 nM.

As to `NC(Cc1ccc(I)cc1)C(=O)NCC(=O)N1CCCC1N` (stereo not drawn) [Compound 1061], the IC50 worked out at 24500 nM.

For the compound `O=C(NCC(=O)N1CCCC1B(O)O)c1cc(I)ccc1F` (stereo not drawn) [Compound 1029, 1-(2-(2-fluoro-5-iodobenzamido)acetyl)pyrrolidin-2-ylboronic acid], the IC50 is 8 nM.

Regarding `O=C(CN1CCN(Cc2cccc(I)c2)CC1)N1CCCC1B(O)O` (stereo not drawn) [Compound 1036, 1-(2-(4-(3-iodobenzyl)piperazin-1-yl)acetyl)pyrrolidin-2-ylboronic acid], the IC50 came out at 37 nM.

As usually defined, the IC50 is the point on the concentration scale where inhibition reaches its midpoint.
